In one series the test system is ex vivo worms in culture. Kind of series: Ex vivo parasite killing, visual examination of cultured worms. The following applies: 10 μM compound, cultured worms. Further details: species or system Schistosoma.
Series [1] concerns the target T1, TGR (Schistosoma mansoni, UniProt Q962Y6).
T1 sequence (Q962Y6 1-598): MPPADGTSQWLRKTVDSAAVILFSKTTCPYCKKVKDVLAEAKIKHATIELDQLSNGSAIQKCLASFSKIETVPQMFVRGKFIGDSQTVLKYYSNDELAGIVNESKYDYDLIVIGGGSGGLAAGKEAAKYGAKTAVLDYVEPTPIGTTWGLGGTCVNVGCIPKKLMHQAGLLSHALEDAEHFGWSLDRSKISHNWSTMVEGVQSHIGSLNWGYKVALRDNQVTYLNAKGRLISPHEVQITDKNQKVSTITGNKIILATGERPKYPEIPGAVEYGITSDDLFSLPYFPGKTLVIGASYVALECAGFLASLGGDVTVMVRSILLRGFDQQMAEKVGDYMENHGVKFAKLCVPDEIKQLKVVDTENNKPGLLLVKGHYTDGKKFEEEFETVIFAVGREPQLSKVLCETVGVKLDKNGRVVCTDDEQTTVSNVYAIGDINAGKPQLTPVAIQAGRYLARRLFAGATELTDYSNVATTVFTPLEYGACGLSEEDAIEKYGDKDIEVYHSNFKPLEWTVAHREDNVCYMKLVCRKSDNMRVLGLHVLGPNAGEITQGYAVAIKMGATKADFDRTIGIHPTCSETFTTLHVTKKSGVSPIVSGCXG
Particulars: cited from earlier work.

The conditions of series [2]: ABTS oxidation; cited from earlier work.
For series [3], the target named is T1, TGR. The series is classed as biochemical. Particulars: with TGR; ABTS method, data in supporting information.
The nature of a further series: Caco-2 permeability. The following applies: human.
A short description of a further series: Microsomal stability. The following applies: human liver microsomes, 60 minutes at 37 °C.

Data on 2 molecules can be found in paper PMC2772170 (Journal of medicinal chemistry, 2009).

Take `O=C(c1cccs1)c1no[n+]([O-])c1C(=O)c1cccs1` [Analogue 3, bis(thiophen-2-ylmethanone)-furoxan]: in the series on ex vivo worms in culture, the “Ex Vivo Parasite Killing 2 hr” value is recorded as “n.e”, the “Ex Vivo Parasite Killing 4 hr” value is recorded as “n.e”, the “Ex Vivo Parasite Killing 48 hr” value is on record as “n.e” and the “Ex Vivo Parasite Killing 72 hr” value was “n.e”. Besides, in the series with ex vivo worms in culture (8 hr), the “Ex Vivo Parasite Killing 8 hr” value is given as “n.e”. The “Ex Vivo Parasite Killing 16 hr” value in the series with ex vivo worms in culture (16 hr) is given as “n.e”. The “Ex Vivo Parasite Killing 24 hr” value in the series on ex vivo worms in culture (24 hr) is reported as “n.e”. In addition, the “NO generation in the presence of TGR/NADPH” value at TGR [1] is listed as “not in the presence of TGR/NADPH”. The “NO generation in the presence of cysteine” value in series [2] is listed as “capable of NO generation in the presence of cysteine”.
Turning to `N#Cc1c(-c2cccs2)no[n+]1[O-]` [Analogue 29], in the series with ex vivo worms in culture, the “Ex Vivo Parasite Killing 2 hr” value was “n.e”, the “Ex Vivo Parasite Killing 4 hr” value was “n.e”, the “Ex Vivo Parasite Killing 48 hr” value stood at 100%D and the “Ex Vivo Parasite Killing 72 hr” value came to 100%D. Besides, the “NO release / NO donating ability (in words)” value on TGR [3] is “good NO release profiles”. In addition, in “Caco-2 permeability”, the Papp A→B is 8.4 ×10⁻⁶ cm/s. In addition, in the series “Microsomal stability” (with NADPH), the “Microsomal stability, NADPH (+)” value came out at 1 % remaining. The “Microsomal stability, NADPH (−)” value in the series “Microsomal stability” (without NADPH) was 64 % remaining.

As usually defined, the Papp A→B is how fast a substance crosses the layer from the apical side. A low value points to slow passage.
